According to patent publication US8273383B2, “Methods and compositions for treatment of preeclampsia” (Children's Medical Center Corporation, priority 2004, dated 2012):
“Also recorded” adds a separate entry of the source.

What was measured:
[1] = tested on: BeWo cells; assay: Secretion of VEGF, sFLT-1 and PlGF by BeWo cytotrophoblast cell line under hypoxia; assay type: cell-based; settings: 5 μM, 10 μM and 30 μM 2-ME
[2] = tested on: HIF-1; settings: cited from earlier work
[3] = tested on: tumor and non-tumor cell lines; settings: wide variety of tumor and non-tumor cell lines; cited from earlier work
[4] = administered orally; cited from earlier work
[5] = tested on: placenta cytotrophoblast cell line (HTR); assay: Secretion of VEGF, sFLT-1 and PlGF by HTR cytotrophoblast cell line under hypoxia; assay type: cell-based
Method: (§1) We have shown that 5 μM, 10 μM and 30 μM of 2-ME can reduce the secreted levels of VEGF up to 75% in a dose dependent manner in a placenta cytotrophoblast cell line (HTR) under hypoxia. […] Similarly, 5 μM, 10 μM and 30 μM of 2-ME can reduce the secreted sFLT-1 levels by up to 50% or more in a dose dependent manner in the same cell lines under hypoxia (see FIGS. 1-3).

[6] = tested on: sFLT-1 and VEGF; assay: Blood levels of sFLT-1 and VEGF in normal mice treated with 2-ME; assay type: in vivo; settings: twice daily 30 μM 2-ME, blood samples
Method: Normal mice were treated with 2-ME twice daily with 30 μM of 2-ME. Blood samples were then obtained and assayed for the level of sFLT-1 and VEGF. […] The 30 μM concentration represents approximately the normal physiological level of 2-ME that is found in the blood of pregnant women in the late second trimester or early third trimester through the end of pregnancy. At the end of a pregnancy, levels of 2-ME in non-preeclamptic subjects drops back to non pregnant levels, which are approximately 1-5 μM.

[7] = tested on: cytotrophoblasts from the placenta; assay: Expression of HIF-1α and angiogenic factors in cytotrophoblasts from the placenta (summary statement); assay type: cell-based
[8] = tested on: HTR-8/SV neo trophoblast cells; assay: Blot of protein expression in trophoblast cell lysates under hypoxic conditions; assay type: cell-based; settings: 5 μM, 10 μM and 30 μM 2-ME
Method: FIG. 5 is a blot showing that 2-methoxyestradiol treatment of HTR-8/SV neo trophoblast cells downregulations HIF-1α, VEGF165, Flt-1, and sFlt-1 expression in cell lysates under hypoxic conditions.
as §1

[9] = 5 μM, 10 μM and 30 μM 2-ME, dose dependent, HTR cell line, hypoxia

Compound: COc1cc2c(cc1O)CC[C@@H]1[C@@H]2CC[C@]2(C)[C@@H](O)CC[C@@H]12 [2-ME, 2-methoxyestradiol]
- PlGF secretion levels [1]: reduce PlGF secretion levels in a dose dependent manner
- reduction of secreted sFLT-1 levels ([1]; dose dependent): ≥ 50%
- HIF-1 induced transcriptional activation of VEGF expression [2]: inhibits
- HIF-1 level ([2]; posttranscriptional level): downregulate
- anti-proliferative activity [3]: potent
- apoptosis [3]: induces apoptosis
- antitumor and antiangiogenic activity [4]: exhibits antitumor and antiangiogenic activity
- toxicity [4]: little or no toxicity
- PlGF secretion levels ([5]; 5 μM, 10 μM and 30 μM 2-ME, HTR cell line, hypoxia): reduce PlGF secretion levels in a dose dependent manner
- PlGF secretion levels ([5]; 5 μM, 10 μM and 30 μM 2-ME, HTR cell line, hypoxia, listed as 2-methoxyestradiol): reduction of PlGF secretion
- reduction of secreted levels of VEGF [5, 9]: up to 75%
- reduction of secreted sFLT-1 levels [5, 9]: ≥ 50%
- sFLT-1 production / secretion ([5]; HTR / HTR-8/SV neo cells): reduction of sFLT-1 production
- secretion of VEGF ([5]; HTR / HTR-8/SV neo cells): reduces secretion of VEGF; also recorded: reduction
- bound VEGF [6]: decrease in bound VEGF
- reduction in sFLT-1 expression [6]: 50%
- expression of HIF-1α [7]: decreases
- expression of VEGF, PlGF, VEGF Receptor 1 (VEGFR1) and sFLT-1 [7]: dramatic decrease
- expression level of Flt-1 in cell lysates [8]: downregulated
- expression level of HIF-1α in cell lysates [8]: downregulated
- expression level of VEGF165 in cell lysates [8]: downregulated
- expression level of sFlt-1 in cell lysates [8]: downregulated
- expression level of Flt-1 in cell lysates ([8]; listed as 2-methoxyestradiol): downregulations
- expression level of HIF-1α in cell lysates ([8]; listed as 2-methoxyestradiol): downregulations
- expression level of VEGF165 in cell lysates ([8]; listed as 2-methoxyestradiol): downregulations
- expression level of sFlt-1 in cell lysates ([8]; listed as 2-methoxyestradiol): downregulations
